pIC50: −log10 of the molar value.
What was measured:
breast line MDA468 = experiment: In vitro cell culture growth assay (MTS), MDA468; assay type: cell-based, human; conditions: MDA468 cells, three days after drug treatment
Summary of the method: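 Three-day drug treatment starting 1 day post-plating; viable cells quantified via MTS metabolism (A490); effect normalised to in-plate vehicle controls as % growth.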

PI3K = PI3K (Homo sapiens, UniProt P42336); experiment: Fluorescence polarization assay for PI3K; assay type: biochemical; conditions: PI3Kα; read-out: PI3Kα IC50;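 further: PI3K kinase reaction on PIP2 with ATP, 30-60 min, product sensed by GST-GRP with red probe in fluorescence polarization (mP), controls without enzyme and at zero time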
Chain of PI3K (P42336 whole entry): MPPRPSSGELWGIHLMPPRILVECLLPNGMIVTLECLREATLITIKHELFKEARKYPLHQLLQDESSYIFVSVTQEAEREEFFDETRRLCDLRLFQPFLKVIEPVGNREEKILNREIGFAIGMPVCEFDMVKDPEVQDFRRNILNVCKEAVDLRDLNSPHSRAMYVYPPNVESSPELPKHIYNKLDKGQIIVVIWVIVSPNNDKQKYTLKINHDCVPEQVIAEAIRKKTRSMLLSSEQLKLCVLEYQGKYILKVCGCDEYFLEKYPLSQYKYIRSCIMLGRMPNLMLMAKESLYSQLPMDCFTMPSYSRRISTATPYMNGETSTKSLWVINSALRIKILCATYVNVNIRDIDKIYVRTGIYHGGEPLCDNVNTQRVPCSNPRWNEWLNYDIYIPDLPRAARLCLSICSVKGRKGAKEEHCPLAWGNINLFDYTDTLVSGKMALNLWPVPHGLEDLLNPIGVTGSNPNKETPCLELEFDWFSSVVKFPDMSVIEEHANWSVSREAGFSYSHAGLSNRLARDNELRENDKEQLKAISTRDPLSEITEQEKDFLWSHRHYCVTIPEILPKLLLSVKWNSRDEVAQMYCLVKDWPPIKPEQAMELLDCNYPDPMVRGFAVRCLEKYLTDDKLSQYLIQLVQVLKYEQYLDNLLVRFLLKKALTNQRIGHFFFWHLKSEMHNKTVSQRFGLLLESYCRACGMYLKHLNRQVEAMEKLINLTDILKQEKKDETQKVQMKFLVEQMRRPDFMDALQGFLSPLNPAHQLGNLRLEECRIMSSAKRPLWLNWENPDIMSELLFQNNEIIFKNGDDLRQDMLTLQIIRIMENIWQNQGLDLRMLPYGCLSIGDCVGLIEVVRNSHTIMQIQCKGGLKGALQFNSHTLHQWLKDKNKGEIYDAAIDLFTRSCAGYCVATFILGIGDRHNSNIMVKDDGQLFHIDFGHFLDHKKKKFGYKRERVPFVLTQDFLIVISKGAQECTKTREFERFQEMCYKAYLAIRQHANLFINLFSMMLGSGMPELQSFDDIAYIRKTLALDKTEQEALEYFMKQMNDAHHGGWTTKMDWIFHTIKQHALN
Chain of PI3K (P27986 whole entry partner): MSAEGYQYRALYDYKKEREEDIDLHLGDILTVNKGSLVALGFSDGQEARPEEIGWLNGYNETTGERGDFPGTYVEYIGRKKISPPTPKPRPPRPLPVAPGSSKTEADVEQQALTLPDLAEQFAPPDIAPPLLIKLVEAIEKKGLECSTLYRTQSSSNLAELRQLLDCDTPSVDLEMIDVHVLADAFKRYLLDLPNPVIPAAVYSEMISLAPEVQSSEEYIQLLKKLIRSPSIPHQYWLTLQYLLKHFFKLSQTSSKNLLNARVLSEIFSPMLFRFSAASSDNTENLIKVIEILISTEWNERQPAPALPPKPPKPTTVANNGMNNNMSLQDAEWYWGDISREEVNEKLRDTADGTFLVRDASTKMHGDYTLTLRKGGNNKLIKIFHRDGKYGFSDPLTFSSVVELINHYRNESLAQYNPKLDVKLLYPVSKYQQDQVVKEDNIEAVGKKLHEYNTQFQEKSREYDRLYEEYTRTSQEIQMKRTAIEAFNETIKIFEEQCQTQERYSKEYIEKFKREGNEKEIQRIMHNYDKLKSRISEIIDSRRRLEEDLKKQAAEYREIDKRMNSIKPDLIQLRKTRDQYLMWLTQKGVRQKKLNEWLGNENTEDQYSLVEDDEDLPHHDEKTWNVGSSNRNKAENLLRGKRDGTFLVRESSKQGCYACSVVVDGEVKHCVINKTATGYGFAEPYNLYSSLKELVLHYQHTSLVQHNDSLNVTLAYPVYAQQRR

prostate line LNCap = experiment: In vitro cell culture growth assay (MTS), LNCap; assay type: cell-based, human; conditions: LNCap cells, three days after drug treatment;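 further: viable cell density read by absorbance at 490 nm, growth expressed as percent of vehicle-treated cells on the same plate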

Row | SMILES | pIC50 (PI3K) | pIC50 (prostate line LNCap) | pIC50 (prostate line LNCap; Homo sapiens, LNCaP, 72 h) | pIC50 (breast line MDA468) | pIC50 (breast line MDA468; Homo sapiens, 72 h)
1 | CNC(=O)Nc1ccc(-c2nc(N3CCOCC3)c3cnn(C4CCN(Cc5ccc(C)cc5)CC4)c3n2)cc1 [Compound 675, 1-methyl-3-(4-{1-[1-(4-methylbenzyl)piperidin-4-yl]-4-morpholin-4-yl-1H-pyrazolo[3,4-d]pyrimidin-6-yl}phenyl)urea] | 7.60 | > 7.57 | – | 6.96 | –
2 | CC(C)(C)OC(=O)N1CCC(n2ncc3c(N4CCOCC4)nc(-c4ccc(NC(=O)Nc5ccon5)cc4)nc32)CC1 [Compound 882, tert-butyl 4-(6-{4-[(isoxazol-3-ylcarbamoyl)amino]phenyl}-4-morpholin-4-yl-1H-pyrazolo[3,4-d]pyrimidin-1-yl)piperidine-1-carboxylate] | 6.95 | – | 7.15 | – | 6.31
3 | CNC(=O)Nc1ccc(-c2nc(N3CCOCC3)c3cnn(C4CCN(C(=O)OCCN(C)C)CC4)c3n2)cc1 [Compound 803, 2-(dimethylamino)ethyl 4-(6-{4-[(methylcarbamoyl)amino]phenyl}-4-morpholin-4-yl-1H-pyrazolo[3,4-d]pyrimidin-1-yl)piperidine-1-carboxylate] | 6.76 | – | 6.00 | – | 6.00
4 | CNC(=O)Nc1ccc(-c2nc(N3CCOCC3)c3cnn(C4CCN(CC(=O)O)CC4)c3n2)cc1 [Compound 798, [4-(6-{4-[(methylcarbamoyl)amino]phenyl}-4-morpholin-4-yl-1H-pyrazolo[3,4-d]pyrimidin-1-yl)piperidin-1-yl]acetic acid] | 6.36 | – | < 4.22 | – | < 4.22
5 | O=C(NO)Nc1ccc(-c2nc(N3CCOCC3)c3cnn(C4CCN(C(=O)c5cccnc5)CC4)c3n2)cc1 [Example 305, 1-hydroxy-3-(4-{4-morpholin-4-yl-1-[1-(pyridin-3-ylcarbonyl)piperidin-4-yl]-1H-pyrazolo[3,4-d]pyrimidin-6-yl}phenyl)urea] | 6.22 | – | 5.00 | – | 5.14
6 | COc1cccc(C(=O)Nc2ccc(-c3nc(N4CCOCC4)c4cnn(C5CCCCO5)c4n3)cc2)c1 (stereo not drawn) [Compound 273, 3-methoxy-N-{4-[4-morpholin-4-yl-1-(tetrahydro-2H-pyran-2-yl)-1H-pyrazolo[3,4-d]pyrimidin-6-yl]phenyl}benzamide] | 5.08 | – | 5.71 | – | 4.22
7 | CNC(=O)Nc1ccc(-c2nc(N3CCOCC3)c3cnn(C4CCN(C(=O)c5cnccc5C)CC4)c3n2)cc1 [Compound 663, 1-methyl-3-[4-(1-{1-[(4-methylpyridin-3-yl)carbonyl]piperidin-4-yl}-4-morpholin-4-yl-1H-pyrazolo[3,4-d]pyrimidin-6-yl)phenyl]urea] | 6.64 | 6.49 | – | 6.37 | –

Further compounds by rising pIC50 (PI3K), results first:

Row | pIC50 (PI3K) | pIC50 (prostate line LNCap) | pIC50 (prostate line LNCap; Homo sapiens, LNCaP, 72 h) | SMILES | pIC50 (breast line MDA468) | pIC50 (breast line MDA468; Homo sapiens, 72 h)
8 | 5.08 | – | 5.71 | COc1cccc(C(=O)Nc2ccc(-c3nc(N4CCOCC4)c4cnn(C5CCCCO5)c4n3)cc2)c1 (stereo not drawn) [Compound 519, 3-methoxy-N-{4-[4-morpholin-4-yl-1-(tetrahydro-2H-pyran-2-yl)-1H-pyrazolo[3,4-d]pyrimidin-6-yl]phenyl}benzamide] | – | < 4.22
9 | 6.37 | – | 5.92 | CN(C)c1ccc(CN2CCC(n3ncc4c(N5CCOCC5)nc(-c5ccc6[nH]ccc6c5)nc43)CC2)cc1 [Example 58] | – | 5.82
10 | 7.00 | – | 7.33 | C=COC(=O)N1CCC(n2ncc3c(N4CCOCC4)nc(-c4ccc(NC(=O)NC)cc4)nc32)CC1 [Compound 753, vinyl 4-(6-{4-[(methylcarbamoyl)amino]phenyl}-4-morpholin-4-yl-1H-pyrazolo[3,4-d]pyrimidin-1-yl)piperidine-1-carboxylate] | – | 6.96
11 | 7.13 | – | 6.39 | CNC(=O)Nc1ccc(-c2nc(N3CCOCC3)c3cnn([C@H]4CCCNC4)c3n2)cc1 [Compound 873, 1-methyl-3-(4-{4-morpholin-4-yl-1-[(3S)-piperidin-3-yl]-1H-pyrazolo[3,4-d]pyrimidin-6-yl}phenyl)urea] | – | 6.14

— patent US20080234262A1 (Wyeth, priority 2007, published 2008)
